Read-outs that look alike come from different tables or passages of the source.
What was measured:
Format in all cases: in vivo
[1] = system: Brown Dog Tick (Rhipicephalus sanguineus); assay: Dose response protocol for topical application on brown dog ticks (LD50); conditions: 24 h mortality
Protocol: e) Dose response protocol for topical application on brown dog ticks (Rhipicephalus sanguineus): The test determines the level of insecticidal activity of sample compounds or formulations when applied topically on brown dog ticks. Sample compounds were stored prior to use in a freezer (−5±1° C.), unless otherwise specified.
• Mortality: A tick is defined as dead after it gives no apparent response when touched lightly or gently breathed upon, while observed for 30 seconds. • LD50 (Lethal Dose 50): The dose of a topically applied treatment at which 50% of the dog ticks are killed. • Reference compound: To assess an experimental compound for significant acaricidal activity a single dose level is chosen, which is based upon known results from previous experiments using a commercially available active i.e., a reference compound. The reference compound selected is one in common use, and one that has a similar mode of action against the Brown Dog Tick (i.e., the test species). • Recovery container: A recovery container consists of a 500 ml round plastic container measuring 115 mm diameter and 70 mm height, with a tight fitting lid that has 10 small (˜1 mm) holes inserted for air exchange. A 90 mm diameter piece of filter paper was placed on the bottom of the container and moistened with 1 mL of de-stilled water.
Adult, mixed sex, Brown Dog Ticks (Rhipicephalus sanguineus) were reared as follows: (i) cultured, (ii) transferred unfed, to a testing laboratory, and (iii) then maintained under controlled conditions (i.e., temp. 18°±2° C., humidity 75±5% RH). The ticks used were selected for vigor prior to testing, i.e., capable of actively walking and responsive to being touched or gently breathed upon.
During the testing, the temperature was maintained at 25±1° C., and the humidity was ambient. Seven dose levels (concentrations) of sample compound, in the form of serial dilutions in acetone, were derived from a pilot study and covered a range that produced very low to very high mortality. Groups of ten ticks were treated topically (on the abdomen) with 1 μL of a single dose level of the sample compound. Each test was replicated four times, i.e., employing a total of 40 ticks per dose level of each sample compound. As a control, ten ticks were treated with solvent only (acetone) for each test. Following the treatment, the ticks were held in recovery containers maintained under appropriate rearing conditions for 24 hours. Mortality resulting from the treatments was recorded at 24 hours. […] Press, London (1971).]

[2] = system: cat flea (Ctenocephalides felis); assay: Ctenocephalides felis adulticide assay: dose response (LC50)
Text: c) Ctenocephalides felis Adulticide Assay: C. felis Dose Response
The purpose of this example was to determine the LC50 when cat fleas were contacted with a glass surface treated with sample compounds or formulations prepared as described above. Mortality of fleas was defined as follows: fleas were considered dead if they didn't move or were on their sides and unable to walk or right themselves. LC50: Lethal Concentration 50—concentration of glass surface treatment at which 50% of the cat fleas were killed. The test species was the cat flea (Ctenocephalides felis). The strain used was obtained from external suppliers as pupae and held in the laboratory under testing conditions until the adults had emerged. Fifteen (15) fleas were used in a minimum of four replicates for each dose level (total of 60 fleas per dose level). The insects were selected to be in the adult life stage, aged between 3 and 7 days post emergence.
The compounds to be tested were dissolved in acetone just prior to testing. Samples of compounds were stored in a refrigerator (5±1° C.) unless otherwise specified. During the mortality testing, the temperature was maintained at 25+1° C. Humidity was maintained at 75±5%. The base (area=159 mm^2) of a 100 mL glass Erlenmeyer (conical) flask provided the treatment surface. Flasks were pretreated with Coatasil™ glass treatment to maximise bio-availability of test compounds by preventing them from binding to the glass surface.
Six dose levels (concentrations) of test sample, in the form of a serial dilution, were derived from a pilot study and covered a range that produced very low to very high mortality. The base of the 100 mL Erlenmeyer flask was treated with 0.5 mL of test sample in acetone and gently swirled. This volume was sufficient to cover the base of the flask. Flasks were left to dry for 24 hours before flea exposure. Adult cat fleas were lightly anaesthetised by cooling and then placed into a sorting chamber, which allowed fleas to revive and jump into the Erlenmeyer flasks. Fifteen (15)adult cat fleas were collected in each flask. The top of the flasks were then covered in Parafilm™ and small holes made to allow gas exchange. A 0.5 mL volume of acetone was applied to the base of an Erlenmeyer flask and the testing proceeded in the same manner described above. Cat fleas in the treatment containers were held under testing conditions for 24 hours. Mortality resulting from the treatments was recorded at 8 and 24 hours.

[3] = system: cat flea (Ctenocephalides felis); assay: whole plant or invertebrate; conditions: Ctenocephalides felis
Summary of the method: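 Single-dose screen at 1.26 μg/cm^2: acetone solution dried for 24 h on a Coatasil-treated 159 mm^2 flask base, then 15 adult cat fleas aged 3-7 days per flask, four or more replicates, acetone control. Percent dead, meaning not moving or unable to right themselves, recorded after 8, 24 and/or 48 h at 25 °C and 75% RH.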

Haemonchus contortus = Haemonchus contortus larvacidal (larval development) assay; conditions: 144 h, read-out: Haemonchus contortus LD99
Summary of the method: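 Nematode eggs placed on agar containing compound (12 two-fold dilutions, final 0.024–50 μg/ml) and left 6 days to develop to L3. LD99 is the lowest concentration inhibiting development of 99% of larvae, derived from well titre (2^n−1) and top concentration.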

[4] = system: Brown Dog Tick (Rhipicephalus sanguineus); assay: Rapid screening protocol for topical application on brown dog ticks; conditions: for R. sanguineus Mortality (%) 48 h: Laboratory 2 F data
Protocol: d) Rapid Screening Protocol for Topical Application on Brown Dog Ticks (Rhipicephalus sanguineus)
The aim of the test was to determine the presence of significant acaricidal activity in sample compounds or formulations when applied topically on brown dog ticks. A tick was defined as dead if it gave no apparent response when touched lightly and observed for 1 minute. […] Both permethrin and fipronil were employed as reference compounds. The insect species tested was the Brown Dog Tick (Rhipicephalus sanguineus). Mixed sex adult ticks were used for tests. The strain used was cultured by von Berky Veterinary Services, Woody Point, QLD, AU and supplied as unfed adult ticks (mixed sex). Ticks were maintained in controlled conditions (temp. 18°+2° C., humidity 75±5% RH).
Temperature was maintained at 25±1° C. and the humidity was ambient. […] Ticks were each treated on the abdomen with 1 μL of a single dose level of test sample in acetone; ten ticks were treated with solvent only (acetone) in each test. Tests were replicated 4 times (total of 40 ticks treated). […]

[5] = 24 h, read-out: C. felis Mortality (%) 24 h, 24 h, Laboratory 2 B data
[6] = 48 h, read-out: C. felis Mortality (%) 48 h, 48 h, Laboratory 2 B data
[7] = 24 h, read-out: C. felis Mortality (%) 24 h, 24 h, Laboratory 1 A data
[8] = 8 h, read-out: C. felis Mortality (%) 8 h, 8 h, Laboratory 1 A data
[9] = 8 h, read-out: C. felis Mortality (%) 8 h, 8 h, Laboratory 2 B data

Compound	C. felis LC50 ([2]; Laboratory 2 D data)	mortality at 1.26 µg/cm2, 1.26 µg/cm2 [3, 5]	IC99 (Haemonchus contortus)	C. felis LC50 ([2]; Laboratory 1 C data)	R. sanguineus Mortality (%) 48 h [4]	mortality at 1.26 µg/cm2, 1.26 µg/cm2 [3, 7]	mortality at 1.26 µg/cm2, 1.26 µg/cm2 [3, 9]	other results
C=CCO/N=C(\C)c1ccc(C(F)(F)F)cc1NS(=O)(=O)C(F)(F)F [Compound 241, N-[2-(1-allyloxyiminoethyl)-5-trifluoromethylphenyl]trifluoromethanesulfonamide]	0.1^D μg/cm^2	100%						R. sanguineus LD50 [1]: 1.9 μg/tick; mortality at 1.26 µg/cm2, 1.26 µg/cm2 [3, 6]: 100%
CC/C(=N\OCC1CCCCC1)c1cc(Cl)ccc1NS(=O)(=O)C(F)(F)F [Compound 104, N-[4-chloro-2-(1-cyclohexylmethoxyiminopropyl)phenyl]trifluoromethanesulfonamide]	1.6 μg/cm^2		10 µg/mL	0.3 μg/cm^2	100%	100%		
CCC(C)O/N=C(\C)c1cc(Cl)ccc1NS(=O)(=O)C(F)(F)F (stereo not drawn) [Compound 242]	0.1^D μg/cm^2	100%						R. sanguineus LD50 [1]: 3.1 μg/tick; mortality at 1.26 µg/cm2, 1.26 µg/cm2 [3, 6]: 100%
CCCCO/N=C(\CC)c1cc(Cl)ccc1NS(=O)(=O)C(F)(F)F [Compound 245]	0.09^D μg/cm^2	100%						R. sanguineus LD50 [1]: 3.9 μg/tick; mortality at 1.26 µg/cm2, 1.26 µg/cm2 [3, 6]: 100%
CCC(CC)O/N=C(\C)c1cc(Cl)ccc1NS(=O)(=O)C(F)(F)F [Compound 174]				0.1 μg/cm^2		100%		R. sanguineus LD50 [1]: 2.9 μg/tick
C/C(=N\Oc1cccc(Cl)c1)c1cc(Cl)ccc1NS(=O)(=O)C(F)(F)F [Compound 132]			1.6 µg/mL	0.2 μg/cm^2	80%	100%		
CC/C(=N\OCc1ccc(Br)cc1)c1cc(Cl)ccc1NS(=O)(=O)C(F)(F)F [Compound 75]			0.9 µg/mL	0.3 μg/cm^2	77%	78%		mortality at 1.26 µg/cm2, 1.26 µg/cm2 [3, 8]: 37%
CC/C(=N\OCc1ccccc1C(F)(F)F)c1cc(Cl)ccc1NS(=O)(=O)C(F)(F)F [Compound 6]	0.03 μg/cm^2		1.3 µg/mL	0.1 μg/cm^2	82%	96%		mortality at 1.26 µg/cm2, 1.26 µg/cm2 [3, 8]: 69%
CC/C(=N\OCc1ccc(Cl)cc1)c1ccc(C(F)(F)F)cc1NS(=O)(=O)C(F)(F)F [Compound 220]		100%			62%		54%	
O=S(=O)(Nc1ccc(Cl)cc1/C(=N/OC1CCCC1)C1CCCCC1)C(F)(F)F [Compound 211]		100%			90%		46%	
CCO/N=C(\c1ccccc1)c1cc(Cl)ccc1NS(=O)(=O)C(F)(F)F [Compound 178, N-[4-chloro-2-(ethoxyiminophenylmethyl)phenyl]trifluoromethanesulfonamide]				0.3 μg/cm^2	85%	96%		
CCCCc1cc(-c2cc(Cl)ccc2NS(=O)(=O)C(F)(F)F)no1 [Compound 291]								Rhipicephalus sanguineus Mortality (%) 24 h ([4]; 24 h, topical, 10 μg of active per tick in 1 μL acetone, adult ticks, Laboratory 1 E data): 67%; mortality at 1.26 µg/cm2 ([3]; 8 h, read-out: Ctenocephalides felis Mortality (%) 8 h): 91%; mortality at 1.26 µg/cm2 ([3]; 24 h, read-out: Ctenocephalides felis Mortality (%) 24 h): 100%
C/C(=N\OCc1cccs1)c1cc(Cl)ccc1NS(=O)(=O)C(F)(F)F [Compound 190]		100%			75%		98%	
CC/C(=N\OCc1ccc(C(F)(F)F)cc1C(F)(F)F)c1cc(Cl)ccc1NS(=O)(=O)C(F)(F)F [Compound 76, N-{2-[1-(2,4-bistrifluoromethylbenzyloxyimino)propyl]-4-chlorophenyl}trifluoromethanesulfonamide]	0.05 μg/cm^2		0.3 µg/mL	0.2 μg/cm^2	80%			mortality at 1.26 µg/cm2, 1.26 µg/cm2 [3, 8]: 100%
CC/C(=N\Oc1ccc(Cl)cc1)c1ccc(C(F)(F)F)cc1NS(=O)(=O)C(F)(F)F [Compound 201]		100%			22%		85%	
CC/C(=N\OCc1ccc(C(F)(F)F)cc1)c1ccc(C(F)(F)F)cc1NS(=O)(=O)C(F)(F)F [Compound 221]		100%			67%		44%	
CCC/C(=N\OC1CCCC1)c1cc(Cl)ccc1NS(=O)(=O)C(F)(F)F [Compound 195]		100%			97%		33%	
C/C(=N\OCC1CCCCC1)c1ccc(C(F)(F)F)cc1NS(=O)(=O)C(F)(F)F [Compound 217]		90%			30%		46%	
CC/C(=N\Oc1ccc(Cl)cc1)c1cc(Cl)ccc1NS(=O)(=O)C(F)(F)F [Compound 128, N-{4-chloro-2-[1-(4-chlorophenoxyimino)propyl]phenyl}trifluoromethanesulfonamide]	0.05 μg/cm^2		0.4 µg/mL	0.08 μg/cm^2	85%	100%		
CC/C(=N\OCc1ccccn1)c1cc(Cl)ccc1NS(=O)(=O)C(F)(F)F [Compound 204]		100%			87%		100%	

Reference: patent US7312248B2, “Control of parasites in animals by the use of novel trifluoromethanesulfonanilide oxime ether derivatives” (Schering-Plough Animal Health Corporation, priority 2004, dated 2007)
